This is an account of results in patent US20250120924A1, “COMPOSITIONS OF TAURINE AND MALIC ACID AND METHODS OF MAKING THE COMPOSITIONS” (NutriScience Innovations LLC, priority 2023, published 2025).

The subject of the experiment is Wild-type nematodes. Briefly: Nematode lifespan/survival in microfluidic chips. In kind it is in vivo. To be noted: versus control, FIG. 4. On the procedure:
EXAMPLE 8—Animal Studies: A nematode animal model was used to evaluate lifespan/survival and energy/activity. Wild-type nematodes were loaded into microfluidic chips and were fed […] E. coli OP50 in NGM buffer food source. The methods have been previously described. Nematode lifespan was measured by survival at standard 18 days, while nematode activity was measured at an optimum 15 days using a visual score. Dosing of 2:1 taurine to malic acid molar ratio composition (composition #4, Example 1) was made using the methodology described previously was at 200 micrograms/ml/day, with the solid composition being dissolved in the aqueous feed. This is equivalent to a human dose of 5 grams per day for these animals. The 5 gram per day human dose equivalent represents a dose of 3.26 grams of taurine and 1.74 grams of malic acid (2:1 molar ratio). The results were compared with taurine alone (human equivalent dose 3.26 grams), and malic acid alone (1.74 grams malic acid).
Eighteen days is the typical survival time for nematodes. Eighteen days may be considered “old-age” for these animals. […] This unexpected synergistic effect has not been previously observed. […] Specific energy/activity levels of the neamtodes was measured at an optimum 15 days of life (which may be considered “middle-age”).

Each structure is given as a SMILES string.

For the molecule `O=C(O)CC(O)C(=O)O` (centres unmarked) [malic acid], the “nematode survival at 18 days” value (malic acid alone, human equivalent dose 1.74 grams) is listed as “did not improve survival times versus control”. With `NCCS(=O)(=O)O` [taurine, 2-aminoethanesulfonic acid], the “nematode survival at 18 days” value (taurine alone, human equivalent dose 3.26 grams) is reported as “did not improve survival times versus control”.
